# From patent US8815946B2, “Inhibition of proliferation and fibrotic response of activated corneal stromal cells” (University of Pittsburgh—of the Commonwealth System of …, priority 2008, dated 2014)
# Assays:
# fibronectin = assay: Immunocytochemical analysis of fibronectin expression, human stromal cells; type: cell-based; settings: human corneal cells treated with TGF-β1
# Method: FIGS. 6A-6B. Immunocytochemical analysis of fibronectin expression. Normal human stromal cells (FIG. 6A) or rabbit corneal stromal cells (FIG. 6B) in P2 growing in DMEM/F12 with 10% FBS were subcultured into 35 mm tissue culture dishes. After 24 hrs of incubation, the media were replaced with DMEM/F12 medium containing 1% FBS and TGF-β1 with or without (control) 10 mM EP and incubated for four days (media were changed every 24 hours). The cells were fixed and double stained for fibronectin (green) and phalloidin (red) using an indirect fluorescence technique as described herein.
# (§1) For immunocytochemical analyses, the cells were cultured on glass cover slips or tissue culture dishes. Cells were rinsed with phosphate-buffered saline (PBS), fixed with paraformaldehyde-lysine-periodate and permeabilized with PIPES buffer containing 0.2% Triton X-100, as described previously (Guerriero et al., Invest. Opthalmol. Vis. Sci. 2007; 48: 627-635). Fixed and permeabilized cells were reacted with 10% heat-inactivated goat serum in PBS, pH 7.5, for 45 minutes to block the nonspecific binding of the secondary antibody, rinsed with PBS, and then treated with the primary and secondary antibodies as described previously (Guerriero et al. Invest. Opthalmol. Vis. Sci. 2007; 48: 627-635). Primary antibodies included monoclonal rat anti-α smooth muscle actin (SMA) and anti-fibronectin. […]
# α-SMA = assay: Immunocytochemical analysis of α-SMA expression, human corneal stromal cells; type: cell-based; settings: 10 mM EP
# Method: FIG. 3. Immunocytochemical analysis of α-SMA expression. Human corneal stromal cells in P2 growing in DMEM/F12 with 10% FBS were subcultured into desired number of 35 mm tissue culture dishes. After 24 hrs of incubation, the media were replaced with DMEM/F12 medium containing 1% FBS and TGF-β1 with or without (control) 10 mM EP and incubated for two and four days (media were changed every 24 hours). The cells were fixed and double stained for α-SMA (green) and phalloidin (red) using an indirect fluorescence technique as described herein.
# as §1
# [1] = test system: extracellular matrix genes; assay: Microarray analysis (Affymetrix U133 Plus 2.0) of corneal stromal cells; type: cell-based, human
# Method: Total RNA was processed and analyzed using the appropriate Affymetrix products (Affymetrix Inc., Santa Clara, Calif.). Eukaryote Poly A RNA internal standards (GeneChip® Poly-A RNA Control Kit from Affymetrix Inc.) were added to the samples, and the mRNA component of the total RNA was reverse-transcribed in the presence of a T7-(dT)24 primer (GeneChip® One-Cycle cDNA Synthesis Kit from Affymetrix Inc.). The resulting cDNA was extracted (GeneChip® Sample Cleanup Module from Affymetrix Inc.) and transcribed in vitro in the presence of biotin-labeled ribonucleotides (Labeling Kit from Affymetrix Inc.). The biotinylated RNA was extracted and fragmented (GeneChip® Sample Cleanup Module from Affymetrix Inc.: 20 μg material fragmented for 35 minutes at 94° C.). Each sample was hybridized overnight to a U133 PLUS™ 2.0 GeneChip (GeneChip® Human Genome U133 Plus 2.0 Array from Affymetrix Inc.). The chips were then washed, developed and scanned in Agilent CHIPSCANNER™ (Affymetrix Inc., Santa Clara, Calif.). Raw data was processed and analyzed using Affymetrix GENECHIP™ Operating System (GCOS) v 1.0.
# The U133 PLUS™ 2.0 GeneChips contain 54,675 panels, each targeting a specific transcript sequence. Approximately 20,600 gene products identified by Entrez Gene numbers are redundantly targeted by 46,000 panels: the remaining panels target products which are less well characterized. Affymetrix GCOS™1.0 software was used to assess the presence or absence of the target sequence of each panel. Expression levels were normalized so that the mean for each sample was equal to the global mean for all samples. Panels, which were absent for every sample in either experiment, were omitted from further consideration. This left 23284 panels encoding 12258 unique, characterized (Entrez Gene) genes.
# In earlier work, the changes in the gene expression upon activation of keratocyte to myofibroblast phenotype induced by TGF-β1 was studied. In the present analysis, as a cross check the present, consistent TGFβ-evoked (>2-fold) increases were checked with the previous data. Transition from keratocytes to fibroblasts increased 520 panels, and decreased 700 panels. The 599 unique, characterized genes so altered were compared with a previously acquired database of 873 genes known to be altered by phenotypic transition either from keratocyte to fibroblast or from fibroblast to myofibroblast. The number of genes concordant between these sets was 170, 4.9-fold greater than random chance (p=1.65×10^−130, chi-squared test). Extracellular matrix components: 244 panels (143 unique genes) with the Gene Ontology Cellular Component code 5578 (extracellular matrix) were selected. Of these, 28 were TGFβ-1 modulated in the present experiment and 49 were Consistent 5-fold increases in myofibroblasts.
# In Table 1 are ECM genes altered by phenotype change, which are also affected by ethyl pyruvate. Genes in bold were altered during phenotype shifts only in previous experiments, genes in italics were altered by phenotype shift only in the present experiment, and genes in normal font were altered by phenotype shifts in both present and prior experiments.
# [2] = three consistent (2-fold) changes of four potential
# [3] = two consistent (2-fold) changes of four potential
smiles,measurement,setting,value
CCOC(=O)C(C)=O [ethyl pyruvate],fibronectin deposition in the matrix (immunocytochemical),fibronectin,concentration dependent downregulation
same,TGF-β1 induced expression of α-SMA (immunocytochemical),α-SMA,downregulated
same,latent transforming growth factor beta binding protein 1 expression change,[1]; four consistent (2-fold) changes of four potential,(−4.1)
same,"consistent increase of RGC32, HMOX1, GDF15 and TRIB3 expression","[1]; myofibroblasts, only four characterized genes",5 fold
same,Tissue factor pathway inhibitor 2 expression change,[1]; [2],(−4.8)
same,"collagen, type III, alpha 1 expression change",[1]; [2],alpha 1 (−4.9)
same,"collagen, type X, alpha1 expression change",[1]; [2],alpha1 (−8.1)
same,"laminin, beta 1 expression change",[1]; [2],(−3.8)
same,matrix metallopeptidase 10 (stromelysin 2) expression change,[1]; [2],(stromelysin 2) (3.8)
same,"periostin, osteoblast specific factor expression change",[1]; [2],specific factor (−9.7)
same,secreted phosphoprotein 1 (osteopontin) expression change,[1]; [2],(osteopontin) (2.7)
same,"Collagen, type VIII, alpha 1 expression change",[1]; [3],alpha 1 (−4.0)
same,EGF-containing fibulin-like extracellular matrix protein1 expression change,[1]; [3],(−2.6)
same,SPARC-like 1 expression change,[1]; [3],SPARC-like 1 (−3.3)
same,chondroitin sulfate proteoglycan 2 (versican) expression change,[1]; [3],(versican) (−5.9)
same,collagen triple helix repeat containing 1 expression change,[1]; [3],containing 1 (−4.3)
same,"collagen, type I, alpha 2 expression change",[1]; [3],alpha 2 (−2.7)
same,"collagen, type V, alpha 1 expression change",[1]; [3],alpha 1 (−6.2)
same,"collagen, type VIII, alpha 2 expression change",[1]; [3],alpha 2 (−3.8)
same,"collagen, type XII, alpha1 expression change",[1]; [3],alpha1 (−2.8)
same,fibronectin 1 expression change,[1]; [3],fibronectin 1 (−2.3)
same,heparan sulfate proteoglycan 2 (perlecan) expression change,[1]; [3],(perlecan) (−3.0)
same,"laminin, alpha 4 expression change",[1]; [3],(−2.4)
same,lysyl oxidase expression change,[1]; [3],lysyl oxidase (−4.0)
same,matrix metallopeptidase 1 (interstitial collagenase) expression change,[1]; [3],collagenase) (5.9)
same,"secreted protein, acidic, cysteine-rich (osteonectin) expression change",[1]; [3],(osteonectin) (−8.4)
same,tenascin C (hexabrachion) expression change,[1]; [3],(hexabrachion) (−7.4)
same,"collagen, type I, alpha 1 expression change","[1]; two consistent (2-fold) ethyl pyruvate changes of four potential (2 phenotypes, 2 experiments)",alpha 1 (−2.9)
